# Experimental data from publication PMC2739411 (Anesthesiology, 2009).
# Target: γ-aminobutyric acid type A (GABAA) receptor α1β2γ2L (Homo sapiens, UniProt P14867+P47870)
# Assay: two-electrode voltage clamp in oocytes
# Assay type: cell-based
# Conditions: read-out: % enhancement of EC5-10 GABA current at 8 μM
# Sequence of γ-aminobutyric acid type A (GABAA) receptor α1β2γ2L (P47870 26-512): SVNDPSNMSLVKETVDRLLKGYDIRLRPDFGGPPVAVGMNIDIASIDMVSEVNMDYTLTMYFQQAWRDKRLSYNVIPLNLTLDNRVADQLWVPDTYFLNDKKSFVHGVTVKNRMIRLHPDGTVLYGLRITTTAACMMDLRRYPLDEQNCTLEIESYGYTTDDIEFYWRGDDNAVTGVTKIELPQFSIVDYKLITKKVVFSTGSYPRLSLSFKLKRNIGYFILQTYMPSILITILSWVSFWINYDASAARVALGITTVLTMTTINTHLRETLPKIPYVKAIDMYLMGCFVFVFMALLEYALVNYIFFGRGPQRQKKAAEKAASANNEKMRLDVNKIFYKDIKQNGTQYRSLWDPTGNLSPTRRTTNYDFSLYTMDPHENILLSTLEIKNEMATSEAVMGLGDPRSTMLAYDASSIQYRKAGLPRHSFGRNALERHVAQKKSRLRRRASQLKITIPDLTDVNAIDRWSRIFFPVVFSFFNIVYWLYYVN
# Sequence of γ-aminobutyric acid type A (GABAA) receptor α1β2γ2L (P14867 28-456): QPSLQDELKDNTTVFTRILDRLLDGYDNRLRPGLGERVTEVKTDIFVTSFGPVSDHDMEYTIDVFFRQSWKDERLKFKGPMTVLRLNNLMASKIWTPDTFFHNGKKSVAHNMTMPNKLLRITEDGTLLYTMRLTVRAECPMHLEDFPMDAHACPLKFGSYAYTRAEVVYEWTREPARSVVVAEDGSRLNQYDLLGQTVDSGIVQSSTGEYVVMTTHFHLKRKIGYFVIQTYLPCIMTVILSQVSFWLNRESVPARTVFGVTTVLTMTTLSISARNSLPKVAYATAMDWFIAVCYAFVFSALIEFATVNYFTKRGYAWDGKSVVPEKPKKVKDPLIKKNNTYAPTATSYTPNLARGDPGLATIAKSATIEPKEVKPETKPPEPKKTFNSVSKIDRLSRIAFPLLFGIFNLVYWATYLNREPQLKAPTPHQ
# Sequence of γ-aminobutyric acid type A (GABAA) receptor α1β2γ2L (P18507 40-475 partner): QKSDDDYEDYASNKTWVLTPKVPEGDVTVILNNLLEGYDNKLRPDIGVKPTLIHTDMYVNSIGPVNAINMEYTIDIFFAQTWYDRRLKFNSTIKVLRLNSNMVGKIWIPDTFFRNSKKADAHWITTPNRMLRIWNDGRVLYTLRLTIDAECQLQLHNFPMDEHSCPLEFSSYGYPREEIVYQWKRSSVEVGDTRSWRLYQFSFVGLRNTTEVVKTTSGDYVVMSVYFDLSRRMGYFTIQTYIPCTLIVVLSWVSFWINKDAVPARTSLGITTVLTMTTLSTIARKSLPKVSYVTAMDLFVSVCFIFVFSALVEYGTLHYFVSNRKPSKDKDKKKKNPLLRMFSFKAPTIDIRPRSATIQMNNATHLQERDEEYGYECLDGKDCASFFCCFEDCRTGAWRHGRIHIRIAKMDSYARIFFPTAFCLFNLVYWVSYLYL
smiles,measurement,value
"COC(=O)CCOC(=O)c1cncn1[C@H](C)c1ccccc1 [compound 3, (R)-3-methoxy-3-oxopropyl1-(1-phenylethyl)-1H-imidazole-5-carboxylate]",activation at 8 µM,450 ± 130%
